Converted amounts (≈) assume the structure as drawn.
System: Malassezia pachydermatis Isolat CBS 1879
Assay: Dilution assay in 96-well microtiter plates, minimal inhibitory concentration (MHK)
Format: cell-based
Conditions: CBS1879, RPMI 1640 Medium, 2 bis 4 Tage bei 37 °C, visual evaluation, read-out: minimale Hemmkonzentration (MHK)
From the text: Einer besonders bevorzugten Ausführungsform der Erfindung entsprechend wird Hygrophoron B^12 oder dessen Enantiomer, Epimere oder Diastereomere zur Verwendung bei der Behandlung einer Mykose eingesetzt, die durch Malassezia pachydermatis ausgelöst wird. Die Evaluierung der biologischen Eigenschaften des erfindungsgemäß verwendeten Hygrophorons B^12 ergab, dass Hygrophoron B^12 stark antimykotische Eigenschaften aufweist. Insbesondere weist Hygrophoron B^12 starke Aktivität gegen Malassezia pachydermatis auf. Figur 1 zeigt eine überraschend starke in vitro Aktivität des erfindungsgemäß verwendeten Hygrophorons B^12 gegen Malassezia pachydermatis, wobei die Aktivität mit dem Arzneistoff Terbinafin vergleichbar ist. Terbinafin ist ein synthetisches Antimykotikum und seit vielen Jahren das meist verordnete Präparat. In Figur 1 bezeichnet MHK die minimale HemmKonzentration (MHK). Sie ist die niedrigste Konzentration einer Substanz, bei der die Vermehrung von Mikroorganismen mit bloßem Auge nicht wahrgenommen werden kann. Die MHK wird mit einem sogenannten Titerverfahren bestimmt. Dabei wird die Konzentration von einem Wirkstoff (hier Terbinafin und Hygrophoron B^12) bestimmt, der das Wachstum von Malassezia pachydermatis gerade noch hemmt. Die MHK wird in Mikrogramm pro Milliliter (µg/ml) angegeben. […]

- MIC: 0.17 µg/mL (≈ 0.544 µM)
SMILES: CCCCCCCCCCCC[C@@H](O)[C@@]1(O)C(=O)C=C[C@@H]1O [Hygrophoron B^12, (+)-cis-4,5-Dihydroxy-5-(1-hydroxytridecyl)cyclopent-2-enon]

Reference: patent publication EP3087981A1, “HYGROPHORON B12 FOR USE IN THE TREATMENT OF A MYCOSIS” (Leibniz-Institut für Pflanzenbiochemie (IPB), priority 2015, dated 2016)
